According to patent publication US10870633B2, “Types of C-3 substituted kynurenic acid derivatives with improved neuroprotective activity” (SZEGEDI TUDOMÁNYEGYETEM, priority 2016, dated 2020):
“And” between values parts separate entries of the source, which are not always exact repeats. Equal entries are not always repeated. Where two headings read alike, the source gives them in different places.

How the values were obtained:
[1] = tested on: fEPSP from the stratum radiatum layer of the CA1 region of the hippocampus; test: In vitro electrophysiology on hippocampal brain slices (fEPSP amplitude, CA1); format: cell-based, Wistar rats; details: for fEPSP amplitude, minutes 31-40 of recording (washing in phase): normalized to the averages of the amplitudes of the control phase, last 10 minutes of washing in; for fEPSP amplitude, minutes 61-70 of recording (washing off phase): after 200 μM, normalized to the control phase, last 10 minutes of recording
Experimental: In the course of our experiments young adult (200-250 g) male Wistar rats were used. Until the start of the experiments the animals were housed in the animal house of the Department of Physiology, Anatomy and Neuroscience, University of Szeged, in standard plastic cages, where 12-12 hours light-dark cycles, standard 23° C. temperature and free access to water and food were provided. In the course of the experiments we aimed at using a minimum number of animals and to cause them the smallest degree of suffering. In each case the principles relating to the care of laboratory animals, the animal care related protocol approved by the Hungarian Health Committee (1998), and the Decree of the Council of the European Communities of 22 Sep. 2010 (2010/63/EU) were followed.
The animals received Isoflurane (3% and then 1%) inhalation anaesthesia for the electrophysiological measurements. After ensuring that the animals were in a deep sleep phase (the paw withdrawal reflex occurring for squeezing stopped), they were decapitated. By incising the head skin and the underlying connective tissue the skull was exposed. Then incisions were made in longitudinal direction along the sagittal suture as well as in transversal direction along the suture coronalis, furthermore caudally therefrom in the right and left direction. After the opening the bregma coronalis incisions were made behind the bulbi and in front of the cerebellum, allowing the removal of the approx. 3 mm thick brain region, containing the hippocampus. From the middle part of the hippocampus 350 μm thick slices were prepared with vibratome (Leica VT1200S, Germany). The cutting was performed in artificial cerebrospinal fluid (aCSF), whose temperature was 4° C. maximum. The aCSF was composed of: 130 mM NaCl, 3.5 mM KCl, 1 mM NaH2PO4, 24 mM NaHCO3, 1 mM […], 3 mM MgSO4 and 10 mM D-glucose (Sigma, Germany). The cut slices were placed in recording aCSF of room temperature, whose composition differed only in the 3 mM CaCl2) and 1.5 MgSO4 concentrations from the one used for cutting. Both the cutting and the recording aCSF were oxygenated with carbogen (95% O2, 5% CO2), for providing the suitable and uninterrupted O2 supply. After the preparation of all the hippocampal slices the recording aCSF in the slice holder container was warmed to 34-35° C., and the brain slices were left to recover for one hour under these conditions in order to assure the proceeding of the regeneration processes started against the damages caused in the course of the slice-preparation. […]
For the electrophysiological recordings a concentric stainless steel electrode (Neuron elektród kft; Budapest, Hungary) was placed in the stratum radiatum layer between the CA3-CA1 regions of the hippocampus, wherein the stimulation was performed with constant current intensity, with 0.2 ms pulses of 0.033 Hz frequency. By positioning the recording electrodes of 2-3 MΩ filled with aCSF in orthodrom position from the previously mentioned region, stimulating postsynaptic field potentials (fEPSP) were conducted from the stratum radiatum layer of the CA1 region, and their amplitudes were monitored.
Submaximal stimulation was used, i.e. about 70-80% of the intensity of the smallest pulse causing the fEPSP of maximum amplitude was used. […] The results were evaluated with the OriginPro 8 (OriginLab Corporation, Northampton, Mass., USA) software. […]

[2] = Passage on the culture model of the blood-brain barrier (bidirectional permeability); format: in vitro ADME, rat; details: rat, 10 μM; for Papp A→B at 60 min, 10 μM / Papp A→B at 30 min, 10 μM: AB (from blood to brain) direction; for Papp B→A at 60 min, 10 μM / Papp B→A at 30 min, 10 μM: BA (from brain to blood) direction; for efflux ratio at 60 min, 10 μM: read-out: Efflux ratio: Papp BA/PappAB
Text: (§1) The blood-brain barrier model prepared by the co-cultivation of three cell types (primary rat brain endothelial cells, primary glia and brain microvascular pericyte cells) was used for the permeability experiments (Nakagawa S, Deli M A, Kawaguchi H, Shimizudani T, Shimono T, Kittel A, Tanaka K, Niwa M. Anew blood-brain barrier model using primary rat brain endothelial cells, pericytes and astrocytes. Neurochem Int. 2009 March-April; 54(3-4):253-63. doi: 10.1016/j.neuint.2008.12.002.; Veszelka S, Tóth A E, Walter F R, Datki Z, Mózes E, Fülöp L, Bozsó Z, Hellinger E, Vastag M, Orsolits B, Környei Z, Penke B, Deli M A. Docosahexaenoic acid reduces amyloid-β induced toxicity in cells of the neurovascular unit. J Alzheimers Dis. 2013; 36(3):487-501.).
(§2) Passage of the compounds of the invention was tested in two directions AB (“from blood to brain”) and BA (“from brain to blood”), in 10 μM concentration.
(§3) The permeability experiment took 60 minutes, with sampling at 30 and 60 minutes from the acceptor compartment.
(§4) The concentrations of the active substances passed through the endothelial cell layer were determined with mass spectrometry. By using the measured concentrations and the known data (volume, starting concentration) the clearance (μl) values, or from the clearance and volume data, by taking the surface and the time into consideration, the so-called permeability coefficients (papp, apparent permeability coefficient; measurement unit 10^−6 cm/s) were calculated, which provide the permeation rates of the compounds.

[3] = tested on: blood-brain barrier model (co-cultivation of primary rat brain endothelial cells, primary glia and brain microvascular pericyte cells); test: as above; format: in vitro ADME; details: for Efflux ratio: Papp BA/PappAB / Papp A-B 30′ / Papp A-B 60′ / Papp B-A 30′ / Papp B-A 60′ / Passage through the blood-brain barrier compared to the 24/1 and 24/2 comparative compounds: 10 μM; for Papp A-B 30′ / Papp A-B 60′: AB (from blood to brain) direction; for Papp A-B 30′ / Papp B-A 30′: sampling at 30 minutes; for Papp A-B 30′ / Papp A-B 60′ / Papp B-A 30′ / Papp B-A 60′: single replicates; for Papp A-B 60′ / Papp B-A 60′: sampling at 60 minutes; for Papp B-A 30′ / Papp B-A 60′: BA (from brain to blood) direction; for Passage through the blood-brain barrier compared to the 24/1 and 24/2 comparative compounds: FIG. 2; for Permeability grade in words: blood-brain barrier model
Text: as §1, §2, §3, §4

[4] = Solubility compared to previously synthesized analogues (statement); format: physicochemical
[5] = average, n=6, read-out: Papp A-B Average
[6] = sampling at 60 minutes, single replicates, read-out: Papp A-B 60′
[7] = average, n=6, read-out: Papp B-A Average
[8] = sampling at 60 minutes, single replicates, read-out: Papp B-A 60′

Papp A→B at 60 min, 10 μM [2, 5] | Papp A→B at 30 min, 10 μM ([2]; single replicates) | Papp A→B at 60 min, 10 μM [2, 6] | Papp B→A at 60 min, 10 μM [2, 7] | Papp B→A at 30 min, 10 μM ([2]; single replicates) | Papp B→A at 60 min, 10 μM [2, 8] | efflux ratio at 60 min, 10 μM [2] | Papp A-B 30′ [3] | Papp A-B 60′ [3] | Papp B-A 30′ [3] | Papp B-A 60′ [3] | Passage through the blood-brain barrier compared to the 24/1 and 24/2 comparative compounds [3] | Compound | further results
 |  |  |  |  |  |  |  |  |  |  |  | O=C(O)c1cc(O)c2ccccc2n1 [kynurenic acid, 4-hydroxy-quinoline-2-carboxylic acid] | fEPSP amplitude decrease in the last 10 minutes of the washing in phase ([1]; 200 μM, preliminary experimental results): 53.86±6.09%
6.7 ×10⁻⁶ cm/s | 4.2 ×10⁻⁶ cm/s | 6 ×10⁻⁶ cm/s | 8.1 ×10⁻⁶ cm/s | 7.6 ×10⁻⁶ cm/s | 9.7 ×10⁻⁶ cm/s | ~1 | 8.3 10^−6 cm/s and 6.4 10^−6 cm/s | 8.4 10^−6 cm/s and 6.7 10^−6 cm/s | 7.9 10^−6 cm/s and 7.2 10^−6 cm/s | 7.9 10^−6 cm/s and 8.5 10^−6 cm/s |  | CN(C)CCNC(=O)c1cc(O)c2ccccc2n1.Cl [comparative 24/2, N-(2-(dimethylamino)ethyl)-4-hydroxyquinoline-2-carboxamide, reference compound] | Efflux ratio: Papp BA/PappAB [3]: 1.2
5.7 ×10⁻⁶ cm/s | 5.4 ×10⁻⁶ cm/s | 7.2 ×10⁻⁶ cm/s | 8.8 ×10⁻⁶ cm/s | 8.3 ×10⁻⁶ cm/s | 12.2 ×10⁻⁶ cm/s | ~1 | 4.5 10^−6 cm/s and 7.4 10^−6 cm/s | 3.9 10^−6 cm/s and 5.8 10^−6 cm/s | 8.1 10^−6 cm/s and 4.2 10^−6 cm/s | 10.5 10^−6 cm/s and 9.2 10^−6 cm/s |  | Cl.O=C(NCCN1CCCC1)c1cc(O)c2ccccc2n1 [comparative 24/1, 4-hydroxy-N-(2-(pyrrolidin-1-yl)ethyl)quinoline-2-carboxamide, reference compound] | Efflux ratio: Papp BA/PappAB [3]: 1.5
36.9 ×10⁻⁶ cm/s | 32.7 ×10⁻⁶ cm/s | 37.8 ×10⁻⁶ cm/s | 22 ×10⁻⁶ cm/s | 20.1 ×10⁻⁶ cm/s | 21.7 ×10⁻⁶ cm/s | ~0.5 | 37.2 10^−6 cm/s and 38.0 10^−6 cm/s | 37.4 10^−6 cm/s and 38.6 10^−6 cm/s | 21.8 10^−6 cm/s and 21.3 10^−6 cm/s | 23.2 10^−6 cm/s and 23.8 10^−6 cm/s | six times higher | CN(C)CCNC(=O)c1nc2ccccc2c(O)c1CN1CCOCC1 [Example 16, N-(2-(dimethylamino)ethyl)-4-hydroxy-3-(morpholinomethyl)quinoline-2-carboxamide] | Permeability grade in words [3]: high permeability
18.6 ×10⁻⁶ cm/s | 16.4 ×10⁻⁶ cm/s | 16.9 ×10⁻⁶ cm/s | 25 ×10⁻⁶ cm/s | 22.3 ×10⁻⁶ cm/s | 24.9 ×10⁻⁶ cm/s | ~1 | 20.1 10^−6 cm/s and 17.9 10^−6 cm/s | 21.5 10^−6 cm/s and 18.8 10^−6 cm/s | 24.3 10^−6 cm/s and 25.1 10^−6 cm/s | 26.7 10^−6 cm/s and 26.6 10^−6 cm/s | triple | O=C(NCCN1CCCC1)c1nc2ccccc2c(O)c1CN1CCOCC1 [Example 20, 4-hydroxy-3-(morpholinomethyl)-N-(2-(pyrrolidin-1-yl)ethyl)quinoline-2-carboxamide] | fEPSP amplitude, minutes 31-40 of recording (washing in phase) ([1]; 200 μM): 58.14±10.16%; fEPSP amplitude, minutes 61-70 of recording (washing off phase) [1]: 107.14±17.99%; Solubility compared to previously synthesized analogues or other analogues with similar effect [4]: better solubility
 |  |  |  |  |  |  |  |  |  |  |  | CCN(CC)Cc1c(C(=O)NCCN2CCCC2)nc2ccccc2c1O [Example 17, 3-((diethylamino)methyl)-4-hydroxy-N-(2-(pyrrolidin-1-yl)ethyl)quinoline-2-carboxamide] | fEPSP amplitude, minutes 31-40 of recording (washing in phase) ([1]; 200 μM): 124.66±10.43%; fEPSP amplitude, minutes 61-70 of recording (washing off phase) [1]: 110.73±7.63%
11 ×10⁻⁶ cm/s | 7.4 ×10⁻⁶ cm/s | 12.4 ×10⁻⁶ cm/s | 5.4 ×10⁻⁶ cm/s | 2.5 ×10⁻⁶ cm/s | 7.6 ×10⁻⁶ cm/s | ~0.5 |  |  |  |  | doubled | Cl.O=C(O)c1nc2ccccc2c(O)c1CN1CCOCC1 [Example 5, 4-hydroxy-3-(morpholinomethyl)quinoline-2-carboxylic acid hydrochloride] | Papp A-B 30′ ([3]; hydrochloride): 8.9 10^−6 cm/s and 8.2 10^−6 cm/s; Papp A-B 60′ ([3]; hydrochloride): 15.4 10^−6 cm/s and 13.9 10^−6 cm/s; Papp B-A 30′ ([3]; hydrochloride): 4.0 10^−6 cm/s and 3.2 10^−6 cm/s; Papp B-A 60′ ([3]; hydrochloride): 7.8 10^−6 cm/s and 7.5 10^−6 cm/s; Permeability grade in words [3]: medium permeability
